Measured values taken from patent publication US20130296393A1, “METHOD FOR CONTROLLING CLUBROOT” (ISHIHARA SANGYO KAISHA, LTD., priority 2011, published 2013).

Test system: Plasmodiophora brassicae
Experiment: Influence of rainfall on clubroot control effect in cabbage (Example 4 / Comparative Example 4)
Assay type: in vivo
Set-up: key to Disease severity: 0–100 index: Σ(plants×disease index 0–4)/(plants×4)×100; key to Disease control value: {1−(treatment severity/control severity)}×100; 100 = full control
Conditions: pot; for Disease control value / Disease severity: 67 days after settled planting
Experimental: Disease severity={Σ(number of each index of diseased plants×disease index)/(number of plants surveyed×4)}×100
Disease control value={1−(treatment disease severity/control disease severity)}×100
0: No adhesion of clubroot, 1: clubroot adhesion to lateral root, 2: clubroot adhesion to the entire lateral root or clubroot adhesion to a part of tap root, 3: adhesion of large clubroot to tap root, and 4: clubroot adhesion to the entire tap root.
The test was carried out by the same method as in Example 3 except for preparing an area subjected to a rainfall treatment of 20 mm by means of a rainfall apparatus (a treatment at a rate of 10 mm/hour for 2 hours) the day before treatment, and an area not subjected to the rainfall treatment. Sixty-seven days after the settled planting, the number of each index of clubroot adhesion to the root was investigated. For comparison, the same test was carried out on a control section where a soil drench treatment with the chemical solution for spraying was not applied.
The test was carried out by the same method as in Example 4 except that in place of the soil drench treatment with the chemical solution for spraying, 30 kg/10 a of 0.3% flusulfamide (dust formulation of Nebijin [trade name], manufactured by Mitsui Chemicals Agro, Inc.) was applied to the test soil just before the settled planting and incorporated into the soil by means of a small mixer (interfusion depth: 15 cm).
The disease severity and disease control value of Example 4 and Comparative Example 4 were determined by the same methods as in Example 1 and Comparative Example 1. In addition, the weight of cabbage in the aerial part was measured. Furthermore, the test result was shown by the average value of five plantings.

[1] = with rainfall treatment 20 mm, 50 ppm soil drench 250 ml/plant 4 days after settled planting
[2] = with rainfall treatment 20 mm, 50 ppm soil drench 250 ml/plant 7 days after settled planting
[3] = with rainfall treatment 20 mm, 50 ppm soil drench 250 ml/plant 14 days after settled planting
[4] = with rainfall treatment 20 mm, 50 ppm soil drench 250 ml/plant just after settled planting
[5] = without rainfall treatment, 50 ppm soil drench 250 ml/plant just after settled planting

Cc1ccc(-c2c(Cl)nc(C#N)n2S(=O)(=O)N(C)C)cc1 [cyazofamid, 4-chloro-2-cyano-1-dimethylsulfamoyl-5-(4-methylphenyl)imidazole]
Weight in the aerial part [1]: 133 g | Disease control value [1]: 100 | Disease severity [1]: 0 | Weight in the aerial part [2]: 129 g | Disease control value [2]: 93 | Disease severity [2]: 5 | Weight in the aerial part [3]: 103 g | Disease control value [3]: 29 | Disease severity [3]: 50 | Weight in the aerial part [4]: 121 g | Disease control value [4]: 100 | Disease severity [4]: 0 | Control effect (with rainfall treatment, soil drench within 7 days after settled planting): a practical control effect was obtained | Weight in the aerial part [5]: 129 g | Disease control value [5]: 100 | Disease severity [5]: 0
